Reference: ChEMBL document CHEMBL2029253, “Pharmacophore modeling, virtual screening and 3D-QSAR studies of 5-tetrahydroquinolinylidine aminoguanidine derivatives as sodium hydrogen exchanger inhibitors” (Bioorg Med Chem Lett, 2012)

Assay: Inhibition of sodium hydrogen exchanger-mediated platelet swelling in human
Settings: for IC50: Homo sapiens

Structure (SMILES) | IC50 (read-out: pIC50 (converted)) [nM] | IC50 (read-out: IC50) [nM] | Ki [nM]
Cc1ccnc2c1/C(=N/N=C(N)N)CC(c1ccc(Cl)cc1)C2 (configuration not stated) | 550 | < 50 | –
Cc1ccnc2c1/C(=N/N=C(N)N)CC(c1sccc1Cl)C2 (configuration not stated) | 19 | – | –
Cc1ccnc2c1/C(=N/N=C(N)N)CC(c1cc(F)ccc1F)C2 (configuration not stated) | 39 | – | –
Cc1ccnc2c1/C(=N/N=C(N)N)CC(c1sc(Cl)cc1Cl)C2 (configuration not stated) | 49 | – | –
Cc1ccnc2c1/C(=N/N=C(N)N)CC(c1cc(Cl)sc1Cl)C2 (configuration not stated) | 19 | – | –
Cc1ccnc2c1/C(=N/N=C(N)N)CC(c1ccco1)C2 (configuration not stated) | 110 | – | –
N=C(N)N/N=c1\cc(-c2ccccc2)oc2ccccc12 | 6400 | 6400 | –
N=C(N)N/N=C1\CC(c2ccccc2)Oc2ccccc21 (configuration not stated) | 3300 | ≤ 6400 | –
Cc1ccnc2c1/C(=N/N=C(N)N)CC(c1cccs1)C2 (configuration not stated) | 47 | – | –
Cc1ccccc1C1C/C(=N\N=C(N)N)c2c(C)c[nH]c2C1 (configuration not stated) | 34 | – | –
Cc1cc(C)c2c(n1)CC(c1ccccc1)C/C2=N\N=C(N)N (configuration not stated) | 180 | < 50 | –
N=C(N)N/N=C1\CC(c2ccccc2)Cc2[nH]ccc21 (configuration not stated) | 3500 | – | –
Cc1ccnc2c1/C(=N/N=C(N)N)CC(c1cccc(Cl)c1)C2 (configuration not stated) | 61 | < 50 | –
Cc1ccnc2oc(-c3ccccc3Cl)c/c(=N\NC(=N)N)c12 | 360 | – | –
Cc1ccnc2c1/C(=N/N=C(N)N)CC(c1ccsc1)C2 (configuration not stated) | 30 | – | –
Cc1ccc2c(n1)CC(c1ccccc1)C/C2=N\N=C(N)N (configuration not stated) | 2800 | 2800 | –
Cc1cccc2c1/C(=N/N=C(N)N)CC(c1ccccc1Cl)O2 (configuration not stated) | 200 | – | –
Cc1ccc(F)cc1C1C/C(=N\N=C(N)N)c2c(C)ccnc2C1 (configuration not stated) | 37 | – | –
N=C(N)N/N=C1\CC(c2ccccc2)Cc2ncccc21 (configuration not stated) | 410 | 410 | –
COc1ccc(F)cc1C1C/C(=N\N=C(N)N)c2c(C)ccnc2C1 (configuration not stated) | 32 | – | –

Continued, in another order:

IC50 (read-out: pIC50 (converted)) [nM] | IC50 (read-out: IC50) [nM] | Structure (SMILES) | Ki [nM]
26 | – | Cc1cnnc2c1/C(=N/N=C(N)N)CC(c1ccccc1Cl)C2 (configuration not stated) | –
340 | – | Cc1ccnc2c1/C(=N/N=C(N)N)CC(c1ccc(Cl)cc1Cl)C2 (configuration not stated) | –
57.9 | – | Cc1ccnc2c1/C(=N/N=C(N)N)CC(c1cc(Cl)ccc1Cl)C2 (configuration not stated) | –
82 | – | Cc1coc2c1/C(=N/N=C(N)N)CC(c1ccccc1Cl)C2 (configuration not stated) | –
50 | < 50 | COc1ccnc2c1/C(=N/N=C(N)N)CC(c1ccccc1Cl)C2 (configuration not stated) | –
56 | 56 | Cc1ccnc2c1/C(=N/N=C(N)N)CC(c1ccccc1Br)C2 (configuration not stated) | –
19 | – | Cc1ccnc2c1/C(=N/N=C(N)N)CC(c1cc(F)ccc1Cl)C2 (configuration not stated) | 19
88.9 | – | Cc1ccnc2c1/C(=N/N=C(N)N)CC(c1cccc(Cl)c1Cl)C2 (configuration not stated) | –
100 | 100 | COc1ccccc1C1C/C(=N\N=C(N)N)c2c(C)ccnc2C1 (configuration not stated) | –
57 | 57 | Cc1ccccc1C1C/C(=N\N=C(N)N)c2c(C)ccnc2C1 (configuration not stated) | –
91 | < 50 | Cc1ccnc2c1/C(=N/N=C(N)N)CC(c1ccccc1)C2 (configuration not stated) | –
32 | 32 | Cc1ccnc2c1/C(=N/N=C(N)N)CC(c1ccccc1F)C2 (configuration not stated) | –
220 | – | Cc1csc2c1/C(=N/N=C(N)N)CC(c1ccccc1Cl)C2 (configuration not stated) | –
240 | – | Cc1ncnc2c1/C(=N/N=C(N)N)CC(c1ccccc1Cl)C2 (configuration not stated) | –
55 | – | Cc1[nH]nc2c1/C(=N/N=C(N)N)CC(c1ccccc1Cl)C2 (configuration not stated) | –
22 | – | Cc1ccnc2c1/C(=N/N=C(N)N)CC(c1ccsc1Cl)C2 (configuration not stated) | –
40 | < 50 | Cc1ccnc2c1/C(=N/N=C(N)N)CC(c1ccccc1Cl)C2 (configuration not stated) | –
